Paper PMC10179503, “Using Machine Learning and Molecular Docking to Leverage Urease Inhibition Data for Virtual Screening” (International Journal of Molecular Sciences, 2023)

What follows are compounds tested against T1, jack bean urease (Canavalia ensiformis, UniProt P07374) (assay: indophenol (Weatherburn) ammonia release, […] nm). Details: urea (20 mM stock, 45 μL), PBS, 30 °C, 10 min.
T1 construct: nickel metalloenzyme; full length 840 residues, native oligomer a hexamer (known biology)
Format: biochemical

T1 sequence (P07374 whole entry): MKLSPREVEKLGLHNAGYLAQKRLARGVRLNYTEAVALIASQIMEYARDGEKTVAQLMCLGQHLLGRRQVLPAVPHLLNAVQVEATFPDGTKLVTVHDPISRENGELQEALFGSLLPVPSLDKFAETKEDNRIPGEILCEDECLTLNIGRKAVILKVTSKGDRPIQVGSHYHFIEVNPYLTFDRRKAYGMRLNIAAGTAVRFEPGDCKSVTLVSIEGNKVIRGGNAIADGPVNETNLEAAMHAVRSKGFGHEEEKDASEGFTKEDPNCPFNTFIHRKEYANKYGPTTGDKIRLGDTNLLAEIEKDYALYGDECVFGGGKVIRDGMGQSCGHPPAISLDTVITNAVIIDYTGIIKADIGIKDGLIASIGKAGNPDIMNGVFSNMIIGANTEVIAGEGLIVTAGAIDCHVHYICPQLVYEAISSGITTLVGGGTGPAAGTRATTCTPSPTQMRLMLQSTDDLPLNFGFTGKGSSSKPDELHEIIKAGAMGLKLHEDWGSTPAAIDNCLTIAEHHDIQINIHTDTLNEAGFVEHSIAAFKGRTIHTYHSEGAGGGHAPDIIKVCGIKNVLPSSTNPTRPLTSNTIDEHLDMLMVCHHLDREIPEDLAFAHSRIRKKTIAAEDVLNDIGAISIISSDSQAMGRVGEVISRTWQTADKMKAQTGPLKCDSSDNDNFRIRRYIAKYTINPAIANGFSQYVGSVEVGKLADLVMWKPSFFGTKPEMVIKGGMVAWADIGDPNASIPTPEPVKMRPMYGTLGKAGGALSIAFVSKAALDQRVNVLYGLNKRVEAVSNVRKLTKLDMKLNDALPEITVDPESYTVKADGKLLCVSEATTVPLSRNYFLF

First: Cc1ccc(S(=O)(=O)NOCc2ccccc2)cc1 [compound 1, 1]
Second: O=C(ON[S+]([O-])c1ccccc1)c1ccccc1 (stereo not drawn) [compound 4, 4]
The “% at 1 mM or IC50 ± SEM (μM)” value of the first is higher: 43.85% for the first, 0% for the second.

The compounds below were run against T1, jack bean urease (assay: indophenol (Weatherburn) ammonia release, […] nm). Details: read-out: % at 1 mM or IC50 ± SEM.
Format: biochemical

`NC(N)=S` [Thiourea, reference compound] and `NOC(=O)c1ccccc1` [compound 5, 5] are within 1.5-fold of each other in IC50: 144 ± 5.08 µM for the first, 155 ± 2.02 µM for the second.

Compared with `O=S(=O)(NOCc1ccccc1)c1ccccc1` [compound 2, 2], `[O-][S+](NOCc1ccccc1)c1ccccc1` (stereo not drawn) [compound 3, 3] is 16-fold lower in IC50: 100 ± 10.2 µM for the first, 6.15 ± 0.99 µM for the second. The second is the more potent here.
